Common to all, as to type: biochemical
Assay [1] deals with T1, Recombinant human TRKB (Homo sapiens, UniProt Q16620).
T1 construct: purchased Carna Biosciences
Nature of the assay: In vitro activity test on TRKB kinase (HTRF KinEASE TK). The following applies: 4.77 μM ATP, 50 min. Here is the method:
(§1) Biological Test Example 1 In Vitro Activity Test on TRKA, TRKB, TRKC Kinase
(§2) Recombinant human TRKA, TRKB, TRKC proteins were purchased from Carna Biosciences. HTRF KinEASE TK kit was purchased from Cisbio Bioassays. Synergy Neo 2 of Biotek was used to read the plate.
(§3) The tested compound was subjected to 3-fold serial dilution to reach a final concentration of 1 μM to 0.05 nM (10 concentrations), duplicates for each concentration; and the DMSO concentration in the detection reaction was 1%.
0.037 ng/μL TRKB protein kinase, 1 μM TK Substrate-biotin polypeptide substrate, 4.77 μM ATP, 1× enzymatic buffer, 5 mM MgCl2, and 1 mM DTT. The detection plate was White Proxiplate 384-Plus plate (PerkinElmer), and incubated at room temperature for 50 min, and the assay volume was 10 μL.
(§4) 10 μL of detection reagent was added to the plate (containing 0.125 μM SA-XL665 and 5 μL 1×TK-Antibody) and incubated overnight at room temperature, and Synergy Neo 2 was used to read the plate.
(§5) The 665/620 Ratio was converted according to the following formula into inhibition rate (%)=(1−Ratiotest/Ratiomax)×100%. Ratiomax was a positive control without tested compound, and Ratiotest was the value of each concentration of different compounds. IC50 (nM) data was obtained by 4 parameter curve fitting (see Table 1).

Assay [2] addresses T2, recombinant human TRKA (G667C) (Homo sapiens, UniProt P04629, G667C).
T2 construct: purchased SignalChem
Kind of assay: In vitro activity test on mutant TRKA (G667C) (HTRF KinEASE TK). To be noted: 5.5 μM ATP, 30 min. Here is the method:
(§6) Biological Test Example 2 In Vitro Activity Test on Mutant TRKA (G595R), TRKA (G667C) and TRKC (G623R)
(§7) The recombinant human TRKA (G595R), TRKA (G667C) and TRKC (G623R) proteins were purchased from SignalChem. HTRF kinEASE TK kit was purchased from CisbioBioassays. Synergy Neo 2 of Biotek was used to read the plate.
(§8) The tested compound was subjected to 4-fold serial dilution to reach a final concentration of 1 μM to 0.004 nM (10 concentrates), duplicates for each concentration; and 1% DMSO was present in the detection reaction.
0.026 ng/μL TRKA (G667C) kinase, 1 μM TK Substrate-biotin polypeptide substrate, 5.5 μm ATP, 1× enzymatic buffer, 5 mM MgCl2, and 1 mM DTT. The detection plate was White Proxiplate 384-Plus plate (PerkinElmer), and incubated at room temperature for 30 min, the assay volume was 10 μL.
as §4
(§9) The value of 665/620 Ratio minus the value of negative control wells without enzyme, then the obtained value was converted according to the following formula into inhibition rate (%)=(1−Ratiotest/Ratiomax)×100%. Ratiomax was a positive control without tested compound, and Ratiotest was the value of each concentration of different compounds. IC50 (nM) data was obtained by 4 parameter curve fitting (see Table 1).
A general note: TR-FRET usually uses a lanthanide donor and a delayed reading to cut background.

Assay [3] has as its target T3, Recombinant human TRKA (Homo sapiens, UniProt P04629).
T3 construct: purchased Carna Biosciences
Kind of assay: In vitro activity test on TRKA kinase (HTRF KinEASE TK). The following applies: 14.68 μM ATP, 40 min. As to the method:
as §1, §2, §3
0.2 ng/μL TRKA protein kinase, 1 μM TK Substrate-biotin polypeptide substrate, 14.68 μM ATP, 1× enzymatic buffer, 5 mM MgCl2, and 1 mM DTT. The detection plate was White Proxiplate384-Plus plate (PerkinElmer), and incubated at room temperature for 40 min, and the assay volume was 10 μL.
as §4, §5

Assay [4] deals with T4, recombinant human TRKA (G595R) (Homo sapiens, UniProt P04629, G595R).
T4 construct: purchased SignalChem
T4 sequence (P04629 33-796 G595R): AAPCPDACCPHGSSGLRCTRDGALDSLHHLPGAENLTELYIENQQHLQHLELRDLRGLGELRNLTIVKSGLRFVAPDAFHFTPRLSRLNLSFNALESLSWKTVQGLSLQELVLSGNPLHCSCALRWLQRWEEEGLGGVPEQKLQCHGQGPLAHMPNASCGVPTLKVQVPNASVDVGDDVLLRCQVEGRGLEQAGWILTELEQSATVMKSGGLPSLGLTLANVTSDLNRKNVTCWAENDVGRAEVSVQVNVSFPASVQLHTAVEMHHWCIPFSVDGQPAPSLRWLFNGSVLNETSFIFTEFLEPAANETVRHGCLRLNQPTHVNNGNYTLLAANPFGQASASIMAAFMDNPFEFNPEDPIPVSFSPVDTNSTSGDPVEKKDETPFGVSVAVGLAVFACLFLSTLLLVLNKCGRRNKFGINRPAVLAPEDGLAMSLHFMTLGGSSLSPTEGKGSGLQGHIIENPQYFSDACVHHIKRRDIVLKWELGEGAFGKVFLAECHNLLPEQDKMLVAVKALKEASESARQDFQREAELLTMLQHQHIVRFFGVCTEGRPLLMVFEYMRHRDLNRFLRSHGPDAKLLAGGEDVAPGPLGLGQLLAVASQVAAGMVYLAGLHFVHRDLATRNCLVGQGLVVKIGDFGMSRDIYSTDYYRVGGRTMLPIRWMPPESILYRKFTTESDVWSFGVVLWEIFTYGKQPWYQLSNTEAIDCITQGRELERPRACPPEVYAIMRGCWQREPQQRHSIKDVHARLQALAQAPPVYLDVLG
Kind of assay: In vitro activity test on mutant TRKA (G595R) (HTRF KinEASE TK). The following applies: 4.5 μM ATP, 30 min. Here is the method:
as §6, §7, §8
0.12 ng/μL TRKA (G595R) kinase, 1 μM TK Substrate-biotin polypeptide substrate, 4.5 μM ATP, 1× enzymatic buffer, 5 mM MgCl2, and 1 mm DTT. The detection plate was White Proxiplate384-Plus plate (PerkinElmer), and incubated at room temperature for 30 min, and the assay volume was 10 μL.
as §4, §9

For assay [5], the target named is T5, Recombinant human TRKC (Homo sapiens, UniProt Q16288).
T5 construct: purchased Carna Biosciences
T5 sequence (Q16288 32-839): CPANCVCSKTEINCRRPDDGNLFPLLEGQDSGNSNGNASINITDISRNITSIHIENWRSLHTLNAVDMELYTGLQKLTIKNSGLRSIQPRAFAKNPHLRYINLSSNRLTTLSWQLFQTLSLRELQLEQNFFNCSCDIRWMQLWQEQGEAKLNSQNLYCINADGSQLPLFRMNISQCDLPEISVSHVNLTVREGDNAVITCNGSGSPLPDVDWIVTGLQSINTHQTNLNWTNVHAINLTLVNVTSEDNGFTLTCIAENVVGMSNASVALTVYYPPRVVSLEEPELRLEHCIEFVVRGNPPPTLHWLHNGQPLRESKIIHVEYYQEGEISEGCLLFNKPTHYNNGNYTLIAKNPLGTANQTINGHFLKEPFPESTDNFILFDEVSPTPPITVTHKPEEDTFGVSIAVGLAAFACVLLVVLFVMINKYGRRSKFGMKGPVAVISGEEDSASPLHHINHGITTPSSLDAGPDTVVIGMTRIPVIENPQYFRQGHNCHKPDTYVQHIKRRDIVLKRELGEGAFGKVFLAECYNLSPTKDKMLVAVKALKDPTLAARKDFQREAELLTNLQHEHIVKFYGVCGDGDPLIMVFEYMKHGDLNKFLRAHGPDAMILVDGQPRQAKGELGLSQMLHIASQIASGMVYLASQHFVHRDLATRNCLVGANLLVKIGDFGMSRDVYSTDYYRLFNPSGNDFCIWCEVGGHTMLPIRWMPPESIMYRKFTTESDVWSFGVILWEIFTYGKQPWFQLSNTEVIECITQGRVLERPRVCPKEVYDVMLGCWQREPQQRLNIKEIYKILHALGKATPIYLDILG
Kind of assay: In vitro activity test on TRKC kinase (HTRF KinEASE TK). To be noted: 25.64 μM ATP, 40 min. Here is the method: as §1, §2, §3
0.037 ng/μL TRKC protein kinase, 1 μM TK Substrate-biotin polypeptide substrate, 25.64 μM ATP, 1× enzymatic buffer, 5 mM MgCl2, and 1 mM DTT. The detection plate was White Proxiplate 384-Plus plate (PerkinElmer), and incubated at room temperature for 40 min, and the assay volume was 10 μL.
as §4, §5

T2 sequence (P04629 33-796 G667C): as the sequence (P04629 33-796 G595R) above, with R563G, G635C counted along it
T3 sequence (P04629 33-796): as the sequence (P04629 33-796 G595R) above, with R563G counted along it
T1 sequence (Q16620 32-822): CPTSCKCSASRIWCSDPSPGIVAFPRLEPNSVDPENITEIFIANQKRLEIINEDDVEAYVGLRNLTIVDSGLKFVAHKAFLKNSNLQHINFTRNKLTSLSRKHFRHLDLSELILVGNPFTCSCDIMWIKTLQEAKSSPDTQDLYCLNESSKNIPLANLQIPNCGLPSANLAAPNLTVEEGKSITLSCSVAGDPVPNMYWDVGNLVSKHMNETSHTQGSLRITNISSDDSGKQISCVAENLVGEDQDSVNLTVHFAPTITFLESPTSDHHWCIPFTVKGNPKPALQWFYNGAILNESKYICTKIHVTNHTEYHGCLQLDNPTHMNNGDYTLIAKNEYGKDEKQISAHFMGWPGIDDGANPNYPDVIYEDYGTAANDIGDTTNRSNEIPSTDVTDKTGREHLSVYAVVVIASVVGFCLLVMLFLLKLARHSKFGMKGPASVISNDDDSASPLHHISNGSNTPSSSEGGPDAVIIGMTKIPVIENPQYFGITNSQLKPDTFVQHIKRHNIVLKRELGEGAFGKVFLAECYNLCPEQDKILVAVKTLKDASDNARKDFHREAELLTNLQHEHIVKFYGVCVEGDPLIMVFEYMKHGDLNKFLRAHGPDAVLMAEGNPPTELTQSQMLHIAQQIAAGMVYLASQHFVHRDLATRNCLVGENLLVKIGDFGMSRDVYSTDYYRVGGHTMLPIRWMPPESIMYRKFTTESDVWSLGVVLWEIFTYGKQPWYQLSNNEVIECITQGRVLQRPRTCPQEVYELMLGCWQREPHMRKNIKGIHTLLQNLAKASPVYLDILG

One may read the IC50 as the point on the concentration scale where inhibition reaches its midpoint. As for `Fc1ccc(F)c([C@H]2C[C@H](F)CN2c2ccc3ncc(Cl)c(-c4nnc(C5CCNCC5)o4)c3n2)c1` [Example 42, 2-(3-Chloro-6-((2R,4S)-2-(2,5-difluorophenyl)-4-fluoropyrrolidin-1-yl)-1,5-naphthyridin-4-yl)-5-(piperidin-4-yl)-1,3,4-oxadiazole], the IC50 in assay [1] is less than 1 nM; in assay [2], less than 10 nM; in assay [3], less than 1 nM; in assay [4], less than 10 nM; in assay [5], less than 1 nM.

For the compound `Fc1ccc(F)c([C@H]2C[C@H](F)CN2c2ccc3ncc(Cl)c(-c4cnn([C@@H]5CCCNC5)c4)c3n2)c1` [Example 54, 7-chloro-2-((2R,4S)-2-(2,5-difluorophenyl)-4-fluoropyrrolidin-1-yl)-8-(1-((R)-piperidin-3-yl)-1H-pyrazol-4-yl)-1,5-naphthyridine], the IC50 in assay [1], in assay [2], in assay [3], in assay [4] and in assay [5] was less than 10 nM each time.

`Fc1ccc(F)c([C@H]2C[C@H](F)CN2c2ccc3ncc(F)c(-c4cnn(C5CNC5)c4)c3n2)c1` [Example 29, 8-(1-(azetidin-3-yl)-1H-pyrazol-4-yl)-2-((2R,4S)-2-(2,5-difluorophenyl)-4-fluoropyrrolidin-1-yl)-7-fluoro-1,5-naphthyridine]: the IC50 in assay [1], in assay [2], in assay [3], in assay [4] and in assay [5] was less than 1 nM throughout.

As to `Fc1ccc(F)c([C@H]2C[C@H](F)CN2c2ccc3ncnc(-n4cc(C5CCNCC5)cn4)c3n2)c1` [Example 78, 6-((2R,4S)-2-(2,5-difluorophenyl)-4-fluoropyrrolidin-1-yl)-4-(4-(piperidin-4-yl)-1H-pyrazol-1-yl)pyrido[3,2-d]pyrimidine], the IC50 in assay [1] is less than 1 nM; in assay [2] it was less than 10 nM; in assay [3], less than 1 nM; in assay [4], less than 1 nM; in assay [5], less than 1 nM.

Regarding `CN(C)S(=O)(=O)n1cc(-c2c(Cl)cnc3ccc(N4C[C@@H](F)C[C@@H]4c4cc(F)ccc4F)nc23)cn1` [Example 31], the IC50 in assay [1] is less than 10 nM; in assay [2], less than 100 nM; in assay [3] it was less than 1 nM; in assay [4], less than 10 nM; in assay [5] it was less than 10 nM.

On to `CN1CCC(n2cc(-c3c(Cl)cnc4ccc(N5C[C@@H](F)C[C@@H]5c5cc(F)ccc5F)nc34)cn2)CC1` [Example 43, 7-Chloro-2-((2R,4S)-2-(2,5-difluorophenyl)-4-fluoropyrrolidin-1-yl)-8-(1-(1-methylpiperidine-4-yl)-1H-pyrazol-4-yl)-1,5-naphthyridine], for which the IC50 in assay [1] was less than 1 nM; in assay [2] it was less than 1 nM; in assay [3], less than 1 nM; in assay [4] it was less than 10 nM; in assay [5], less than 1 nM.

For the compound `Fc1ccc(F)c([C@H]2CCCN2c2ccc3nccc(-c4cnn(C5CCNCC5)c4F)c3n2)c1` [Example 15, (R)-2-(2-(2,5-Difluorophenyl)pyrrolidin-1-yl)-8-(5-fluoro-1-(piperidin-4-yl)-1H-pyrazole-4-yl)-1,5-naphthyridine], the concentration for half-maximal inhibition (IC50) in assay [1] is less than 1 nM; in assay [2], less than 10 nM; in assay [3], less than 1 nM; in assay [4], less than 1 nM; in assay [5], less than 1 nM.

For the compound `Fc1ccc(F)c([C@H]2CCCN2c2ccc3ncc(F)c(-c4cnn(C5CCNCC5)c4)c3n2)c1` [Example 21], the IC50 in assay [1] is less than 1 nM; in assay [2], less than 10 nM; in assay [3] it was less than 1 nM; in assay [4], less than 1 nM; in assay [5], less than 1 nM.

For `COc1ncc(F)cc1[C@H]1CCCN1c1ccc2ncc(Cl)c(-c3cnn(C4CCNCC4)c3)c2n1` [Example 30, (R)-7-chloro-2-(2-(5-fluoro-2-methoxypyridin-3-yl)pyrrolidin-1-yl)-8-(1-(piperidin-4-yl)-1H-pyrazol-4-yl)-1,5-naphthyridine], the IC50 in assay [1] is less than 10 nM; in assay [2], less than 10 nM; in assay [3] it was less than 1 nM; in assay [4], less than 1 nM; in assay [5] it was less than 10 nM.

As to `CN1CC(n2cc(-c3c(Cl)cnc4ccc(N5C[C@@H](F)C[C@@H]5c5cc(F)ccc5F)nc34)cn2)C1` [Example 23], the IC50 in assay [1] was less than 1 nM; in assay [2], less than 1 nM; in assay [3] it was less than 1 nM; in assay [4] it was less than 1 nM; in assay [5] it was less than 10 nM.

Consider `O=C(Nc1ccnc2ccc(N3CCC[C@@H]3c3cc(F)ccc3F)nc12)N1CC[C@H](O)C1` [Example 27, (S)—N-(6-((R)-2-(2,5-difluorophenyl)pyrrolidin-1-yl)-1,5-naphthyridin-4-yl)-3-hydroxypyrrolidin-1-carboxamide], for which the IC50 in assay [1] is less than 1 nM; in assay [2] it was less than 50 nM; in assay [3], less than 1 nM; in assay [4] it was less than 1 nM; in assay [5] it was less than 1 nM.

`CS(=O)(=O)n1cc(-c2c(Cl)cnc3ccc(N4C[C@@H](F)C[C@@H]4c4cc(F)ccc4F)nc23)cn1` [Example 25, 7-chloro-2-((2R,4S)-2-(2,5-difluorophenyl)-4-fluoropyrrolidin-1-yl)-8-(1-(methylsulfonyl)-1H-pyrazol-4-yl)-1,5-naphthyridine]: the IC50 in assay [1] is less than 1 nM; in assay [2] it was less than 10 nM; in assay [3] it was less than 10 nM; in assay [4], less than 1 nM; in assay [5], less than 1 nM.

As for `OC[C@H](O)CN1CCC(n2cc(-c3c(Cl)cnc4ccc(N5C[C@@H](F)C[C@@H]5c5cc(F)ccc5F)nc34)cn2)CC1` [Example 40, (R)-3-(4-(4-(3-chloro-6-((2R,4S)-2-(2,5-difluorophenyl)-4-fluoropyrrolidin-1-yl)-1,5-naphthyridin-4-yl)-1H-pyrazol-1-yl)piperidin-1-yl)propane-1,2-diol], the IC50 in assay [1], in assay [2], in assay [3], in assay [4] and in assay [5] was less than 1 nM in each case.

As for `CC1(C)CC(n2cc(-c3ccnc4ccc(N5C[C@@H](F)C[C@@H]5c5cc(F)ccc5F)nc34)cn2)CCN1` (stereo partly drawn) [Example 18, 2-((2R,4S)-2-(2,5-difluorophenyl)-4-fluoropyrrolidin-1-yl)-8-(1-(2,2-dimethylpiperidin-4-yl)-1H-pyrazol-4-yl)-1,5-naphthyridine], the 50% inhibitory concentration (IC50) in assay [1] was less than 1 nM; in assay [2], less than 10 nM; in assay [3] it was less than 1 nM; in assay [4] it was less than 10 nM; in assay [5] it was less than 1 nM.

Turning to `O[C@@H]1CN=C(Nc2ccnc3ccc(N4C[C@@H](F)C[C@@H]4c4cc(F)ccc4F)nc23)OC1` [Example 98, (R)-2-((6-((2R,4S)-2-(2,5-difluorophenyl)-4-fluoropyrrolidin-1-yl)-1,5-naphthyridin-4-yl)amino)-5,6-dihydro-4H-1,3-oxazin-5-ol], the IC50 in assay [1], in assay [2], in assay [3], in assay [4] and in assay [5] was less than 1 nM each time.

(Values after patent US20220017512A1 (SHANGHAI ENNOVABIO PHARMACEUTICALS CO., LTD., priority 2018, published 2022).)
